Values of other authors in US20060100282A1, “Novel diaminopropane-based metal chelators as antiviral agents” (Bioflexis, LLC, priority 2004, published 2006).

Assays:
HIV-1 integrase (IN) [1] = molecular target: T1, HIV-1 integrase (IN) (Human immunodeficiency virus type 1 group M subtype B, UniProt P12497); settings: result in words
T1 construct: HIV-1 recombinant IN (HIV-1NL 4-3 Integrase, NIH AIDS Reagent program Catalog No: 2959); purchased NIH AIDS Reagent program 2959

HIV-1 integrase (IN) [2] = molecular target: T1, HIV-1 integrase (IN); settings: result in words; remark: listed apart in the source

Structure (SMILES)	inhibition of strand transfer reaction (HIV-1 integrase (IN) [1])	inhibition of 3′ processing (HIV-1 integrase (IN) [2])
O=C(O)C(=O)CC(=O)c1cc(OCc2ccccc2)cc(OCc2ccccc2)c1 [Inhibitor 6]	inhibit strand transfer reaction	do not inhibit 3′ processing
O=C(O)C(=O)CC(=O)c1cccn1Cc1ccc(F)cc1 [Inhibitor 8]	inhibit strand transfer reaction	do not inhibit 3′ processing
